Laboratory results taken from the supplement of paper PMC10307832.

Experiments:
Test in all cases: relative viability (nuclei count vs DMSO), 5 days (fraction); higher = more cells survive
ChaGo-K-1 = system: ChaGo-K-1
Method in brief: (§1)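 One day after seeding in 1536-well plates, lung cancer cell lines were dosed by pin tool. Dosing was either single-drug or a fixed anchor-drug dose plus five library-drug doses (not always all listed) in √10 steps. After 5 days, nuclei were stained in one fix-and-stain step and counted on 4× images, and relative viability is the nuclei count of treated wells over that of vehicle wells, given as the median of duplicate plates.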

EMC-BAC-2 = system: EMC-BAC-2
Method in brief: as §1

EPLC-272H = system: EPLC-272H
Method in brief: as §1

HCC-44 = system: HCC-44
Method in brief: as §1

HOP-62 = system: HOP-62
Method in brief: as §1

LCLC-103H = system: LCLC-103H
Method in brief: as §1

LOU-NH91 = system: LOU-NH91
Method in brief: as §1

NCI-H1437 = system: NCI-H1437
Method in brief: as §1

NCI-H1793 = system: NCI-H1793
Method in brief: as §1

NCI-H2009 = system: NCI-H2009
Method in brief: as §1

NCI-H2023 = system: NCI-H2023
Method in brief: as §1

NCI-H2126 = system: NCI-H2126
Method in brief: as §1

NCI-H2170 = system: NCI-H2170
Method in brief: as §1

NCI-H2347 = system: NCI-H2347
Method in brief: as §1

NCI-H23 = system: NCI-H23
Method in brief: as §1

NCI-H2405 = system: NCI-H2405
Method in brief: as §1

NCI-H441 = system: NCI-H441
Method in brief: as §1

NCI-H460 = system: NCI-H460
Method in brief: as §1

NCI-H520 = system: NCI-H520
Method in brief: as §1

NCI-H647 = system: NCI-H647
Method in brief: as §1

NCI-H650 = system: NCI-H650
Method in brief: as §1

NCI-H727 = system: NCI-H727
Method in brief: as §1

SW 1573 = system: SW 1573
Method in brief: as §1

With `O=C(O)CCCCC(CCSCc1ccccc1)SCc1ccccc1` (stereo not given) [CPI-613] + COc1cccc2cc(-c3nc([C@H]4CC[C@H](C(=O)O)CC4)n4ncnc(N)c34)[nH]c12 [OSI-027] (partner 0.5 µM) the relative viability (ChaGo-K-1; first compound 5 µM) was 0.61, the relative viability (ChaGo-K-1; first compound 15.81 µM) was 0.509 and the relative viability (ChaGo-K-1; first compound 50 µM) was 0.53. It also gave a relative viability (ChaGo-K-1; first compound 158.11 µM) of 0.377, a relative viability (ChaGo-K-1; first compound 500 µM) of 0.0966 and a relative viability (EMC-BAC-2; first compound 5 µM) of 0.385. It also gave a relative viability (EMC-BAC-2; first compound 15.81 µM) of 0.334, a relative viability (EMC-BAC-2; first compound 50 µM) of 0.337 and a relative viability (EMC-BAC-2; first compound 158.11 µM) of 0.181. For the same compound, the relative viability (EMC-BAC-2; first compound 500 µM) was 0.0272, the relative viability (EPLC-272H; first compound 5 µM) was 0.279 and the relative viability (EPLC-272H; first compound 15.81 µM) was 0.307. The relative viability (EPLC-272H; first compound 50 µM) was 0.263, the relative viability (EPLC-272H; first compound 158.11 µM) was 0.261 and the relative viability (EPLC-272H; first compound 500 µM) was 0.0195. For the same compound, the relative viability (HCC-44; first compound 5 µM) was 0.432, the relative viability (HCC-44; first compound 15.81 µM) was 0.405 and the relative viability (HCC-44; first compound 50 µM) was 0.501. For the same compound, the relative viability (HCC-44; first compound 158.11 µM) was 0.489, the relative viability (HCC-44; first compound 500 µM) was 0.0788 and the relative viability (HOP-62; first compound 5 µM) was 0.74. The relative viability (HOP-62; first compound 15.81 µM) was 0.759, the relative viability (HOP-62; first compound 50 µM) was 0.799 and the relative viability (HOP-62; first compound 158.11 µM) was 0.477. The relative viability (HOP-62; first compound 500 µM) was 0.301, the relative viability (LCLC-103H; first compound 5 µM) was 0.424 and the relative viability (LCLC-103H; first compound 15.81 µM) was 0.428. The relative viability (LCLC-103H; first compound 50 µM) was 0.345, the relative viability (LCLC-103H; first compound 158.11 µM) was 0.377 and the relative viability (LCLC-103H; first compound 500 µM) was 0.317. For the same compound, the relative viability (LOU-NH91; first compound 5 µM) was 0.703, the relative viability (LOU-NH91; first compound 15.81 µM) was 0.65 and the relative viability (LOU-NH91; first compound 50 µM) was 0.703. The relative viability (LOU-NH91; first compound 158.11 µM) was 0.686, the relative viability (LOU-NH91; first compound 500 µM) was 0.672 and the relative viability (NCI-H1437; first compound 5 µM) was 0.892. It also gave a relative viability (NCI-H1437; first compound 15.81 µM) of 0.814, a relative viability (NCI-H1437; first compound 50 µM) of 0.818 and a relative viability (NCI-H1437; first compound 158.11 µM) of 0.245. For the same compound, the relative viability (NCI-H1437; first compound 500 µM) was 0.0279, the relative viability (NCI-H1793; first compound 5 µM) was 0.277 and the relative viability (NCI-H1793; first compound 15.81 µM) was 0.241. For the same compound, the relative viability (NCI-H1793; first compound 50 µM) was 0.245, the relative viability (NCI-H1793; first compound 158.11 µM) was 0.171 and the relative viability (NCI-H1793; first compound 500 µM) was 0.0629. It also gave a relative viability (NCI-H2009; first compound 5 µM) of 0.599, a relative viability (NCI-H2009; first compound 15.81 µM) of 0.58 and a relative viability (NCI-H2009; first compound 50 µM) of 0.46. It also gave a relative viability (NCI-H2009; first compound 158.11 µM) of 0.0782, a relative viability (NCI-H2009; first compound 500 µM) of 0.0289 and a relative viability (NCI-H2023; first compound 5 µM) of 0.407. For the same compound, the relative viability (NCI-H2023; first compound 15.81 µM) was 0.303, the relative viability (NCI-H2023; first compound 50 µM) was 0.29 and the relative viability (NCI-H2023; first compound 158.11 µM) was 0.0518. The relative viability (NCI-H2023; first compound 500 µM) was 0.0054, the relative viability (NCI-H2126; first compound 5 µM) was 0.66 and the relative viability (NCI-H2126; first compound 15.81 µM) was 0.643. For the same compound, the relative viability (NCI-H2126; first compound 50 µM) was 0.7, the relative viability (NCI-H2126; first compound 158.11 µM) was 0.448 and the relative viability (NCI-H2126; first compound 500 µM) was 0.63. The relative viability (NCI-H2170; first compound 5 µM) was 0.718, the relative viability (NCI-H2170; first compound 15.81 µM) was 0.715 and the relative viability (NCI-H2170; first compound 50 µM) was 0.662. For the same compound, the relative viability (NCI-H2170; first compound 158.11 µM) was 0.482, the relative viability (NCI-H2170; first compound 500 µM) was 0.101 and the relative viability (NCI-H2347; first compound 5 µM) was 0.325. The relative viability (NCI-H2347; first compound 15.81 µM) was 0.407, the relative viability (NCI-H2347; first compound 50 µM) was 0.336 and the relative viability (NCI-H2347; first compound 158.11 µM) was 0.373. For the same compound, the relative viability (NCI-H2347; first compound 500 µM) was 0.456, the relative viability (NCI-H23; first compound 5 µM) was 0.651 and the relative viability (NCI-H23; first compound 15.81 µM) was 0.531. The relative viability (NCI-H23; first compound 50 µM) was 0.62, the relative viability (NCI-H23; first compound 158.11 µM) was 0.263 and the relative viability (NCI-H23; first compound 500 µM) was 0.0292. For the same compound, the relative viability (NCI-H2405; first compound 5 µM) was 0.638, the relative viability (NCI-H2405; first compound 15.81 µM) was 0.582 and the relative viability (NCI-H2405; first compound 50 µM) was 0.588. For the same compound, the relative viability (NCI-H2405; first compound 158.11 µM) was 0.533, the relative viability (NCI-H2405; first compound 500 µM) was 0.513 and the relative viability (NCI-H441; first compound 5 µM) was 0.615. The relative viability (NCI-H441; first compound 15.81 µM) was 0.596, the relative viability (NCI-H441; first compound 50 µM) was 0.586 and the relative viability (NCI-H441; first compound 158.11 µM) was 0.255. It also gave a relative viability (NCI-H441; first compound 500 µM) of 0.0397, a relative viability (NCI-H460; first compound 5 µM) of 0.636 and a relative viability (NCI-H460; first compound 15.81 µM) of 0.422. It also gave a relative viability (NCI-H460; first compound 50 µM) of 0.535, a relative viability (NCI-H460; first compound 158.11 µM) of 0.173 and a relative viability (NCI-H460; first compound 500 µM) of 0.0125. It also gave a relative viability (NCI-H520; first compound 5 µM) of 0.268, a relative viability (NCI-H520; first compound 15.81 µM) of 0.243 and a relative viability (NCI-H520; first compound 50 µM) of 0.208. It also gave a relative viability (NCI-H520; first compound 158.11 µM) of 0.179, a relative viability (NCI-H520; first compound 500 µM) of 0.141 and a relative viability (NCI-H647; first compound 5 µM) of 0.667. The relative viability (NCI-H647; first compound 15.81 µM) was 0.498, the relative viability (NCI-H647; first compound 50 µM) was 0.445 and the relative viability (NCI-H647; first compound 158.11 µM) was 0.147. The relative viability (NCI-H647; first compound 500 µM) was 0.0299, the relative viability (NCI-H650; first compound 5 µM) was 0.445 and the relative viability (NCI-H650; first compound 15.81 µM) was 0.415. It also gave a relative viability (NCI-H650; first compound 50 µM) of 0.466, a relative viability (NCI-H650; first compound 158.11 µM) of 0.346 and a relative viability (NCI-H650; first compound 500 µM) of 0.373. It also gave a relative viability (NCI-H727; first compound 5 µM) of 0.554, a relative viability (NCI-H727; first compound 15.81 µM) of 0.624 and a relative viability (NCI-H727; first compound 50 µM) of 0.461. The relative viability (NCI-H727; first compound 158.11 µM) was 0.339, the relative viability (NCI-H727; first compound 500 µM) was 0.334 and the relative viability (SW 1573; first compound 5 µM) was 0.592. The relative viability (SW 1573; first compound 15.81 µM) was 0.444, the relative viability (SW 1573; first compound 50 µM) was 0.498 and the relative viability (SW 1573; first compound 158.11 µM) was 0.0962. For the same compound, the relative viability (SW 1573; first compound 500 µM) was 0.056.
